Tests used:
Namalwa AG4 cells = assay: Cell proliferation assay (3H-thymidine incorporation); assay type: cell-based; conditions: one collective range stated for the tested compounds, read-out: IC50 values for inhibiting proliferation of Namalwa AG4 cells
Procedure: 5.48.3 Cell Proliferation Assay
Cell lines Namalwa, MUTZ-5, and UT-7 are obtained from the Deutsche Sammlung von Mikroorganismen und Zellkulturen GmbH (Braunschweig, Germany). The cell line KG-1 is obtained from the American Type Culture Collection (Manassas, Va., USA). Cell proliferation as indicated by ^3H-thymidine incorporation is measured in all cell lines as follows.
Cells are plated in 96-well plates at 6000 cells per well in media. The cells are pre-treated with compounds at about 100, 10, 1, 0.1, 0.01, 0.001, 0.0001 and 0 μM in a final concentration of about 0.25% DMSO in triplicate at 37° C. in a humidified incubator at 5% CO2 for 72 hours. One microcurie of 3H-thymidine (Amersham) is then added to each well, and cells are incubated again at 37° C. in a humidified incubator at 5% CO2 for 6 hours. The cells are harvested onto UniFilter GF/C filter plates (Perkin Elmer) using a cell harvester (Tomtec), and the plates are allowed to dry overnight. Microscint 20 (Packard) (25 μl/well) is added, and plates are analyzed in TopCount NXT (Packard). Each well is counted for one minute. Percent inhibition of cell proliferation is calculated by averaging all triplicates and normalizing to the DMSO control (0% inhibition). Each compound is tested in each cell line in three separate experiments. Final IC50s are calculated using non-linear regression, sigmoidal dose-response, constraining the top to 100% and bottom to 0%, allowing variable slope. (GraphPad Prism v3.02).
Abilities of certain compounds for inhibiting proliferation of Namalwa AG4 cells were determined using procedures substantially similar to those described in Section 5.48.3, above.

| SMILES | melting point | IC50 (Namalwa AG4 cells) |
| --- | --- | --- |
| Cc1nc2ccc(CN)cc2c(=O)n1C1CCC(=O)NC1=O.Cl (stereo not shown) | 299 to 301 °C | – |
| Cc1nc2cc(CN)ccc2c(=O)n1C1CCC(=O)NC1=O.Cl (stereo not shown) | 313 to 315 °C | – |
| Cc1ccc(NC(=O)NCc2ccc3nc(C)n(C4CCC(=O)NC4=O)c(=O)c3c2)cc1Cl (stereo not shown) [1-(3-chloro-4-methyl-phenyl)-3-[3-(2,6-dioxo-piperidin-3-yl)-2-methyl-4-oxo-3,4-dihydro-quinazolin-6-ylmethyl]-urea] | 186 to 188 °C | 0.01 to 5.5 µM |
| Cc1nc2ccc(CNC(=O)Nc3ccc(Cl)cc3)cc2c(=O)n1C1CCC(=O)NC1=O (stereo not shown) [1-(4-chloro-phenyl)-3-[3-(2,6-dioxo-piperidin-3-yl)-2-methyl-4-oxo-3,4-dihydro-quinazolin-6-ylmethyl]-urea] | 225 to 227 °C | 0.01 to 5.5 µM |
| Cc1cccc(NC(=O)NCc2ccc3nc(C)n(C4CCC(=O)NC4=O)c(=O)c3c2)c1 (stereo not shown) [1-[3-(2,6-dioxo-piperidin-3-yl)-2-methyl-4-oxo-3,4-dihydro-quinazolin-6-ylmethyl]-3-m-tolyl-urea] | 200 to 202 °C | 0.01 to 5.5 µM |
| Cc1nc2ccc(CNC(=O)Cc3ccc(Cl)cc3)cc2c(=O)n1C1CCC(=O)NC1=O (stereo not shown) [2-(4-chloro-phenyl)-N-[3-(2,6-dioxo-piperidin-3-yl)-2-methyl-4-oxo-3,4-dihydro-quinazolin-6-ylmethyl]-acetamide] | 229.5 to 231.5 °C | 0.01 to 5.5 µM |
| Cc1nc2ccc(CNC(=O)c3ccc(Cl)c(Cl)c3)cc2c(=O)n1C1CCC(=O)NC1=O (stereo not shown) [3,4-dichloro-N-[3-(2,6-dioxo-piperidin-3-yl)-2-methyl-4-oxo-3,4-dihydro-quinazolin-6-ylmethyl]-benzamide] | – | 0.01 to 5.5 µM |
| Cc1ccc2c(=O)n(C3CCC(=O)NC3=O)c(C)nc2c1 (stereo not shown) [3-(2,7-dimethyl-4-oxo-4H-quinazolin-3-yl)-piperidine-2,6-dione] | 305 °C (dec.) | – |
| Cc1cccc2c(=O)n(C3CCC(=O)NC3=O)c(C)nc12 (stereo not shown) [3-(2,8-dimethyl-4-oxo-4H-quinazolin-3-yl)-piperidine-2,6-dione] | 296 to 298 °C | – |
| Cc1nc2c(C(F)(F)F)cccc2c(=O)n1C1CCC(=O)NC1=O (stereo not shown) [3-(2-methyl-4-oxo-8-trifluoromethyl-4H-quinazolin-3-yl)-piperidine-2,6-dione] | 351 to 353 °C | – |
| COc1cc2nc(C)n(C3CCC(=O)NC3=O)c(=O)c2cc1OC (stereo not shown) [3-(6,7-dimethoxy-2-methyl-4-oxo-4H-quinazolin-3-yl)-piperidine-2,6-dione] | 325 °C (dec.) | – |
| Cc1nc2c(Br)cccc2c(=O)n1C1CCC(=O)NC1=O (stereo not shown) [3-(8-bromo-2-methyl-4-oxo-4H-quinazolin-3-yl)-piperidine-2,6-dione] | 307 to 309 °C | – |
| Cc1nc2c(O)cccc2c(=O)n1C1CCC(=O)NC1=O (stereo not shown) [3-(8-hydroxy-2-methyl-4-oxo-4H-quinazolin-3-yl)-piperidine-2,6-dione] | 266 to 268 °C | – |
| Cc1nc2ccc(CNC(=O)c3ccc(Cl)cc3)cc2c(=O)n1C1CCC(=O)NC1=O (stereo not shown) [4-chloro-N-[3-(2,6-dioxo-piperidin-3-yl)-2-methyl-4-oxo-3,4-dihydro-quinazolin-6-ylmethyl]-benzamide] | 267 to 269 °C | – |
| Cc1ccc2nc(C)n(C3CCC(=O)NC3=O)c(=O)c2c1 (stereo not shown) [Example 5.1, 3-(2,6-dimethyl-4-oxo-4H-quinazolin-3-yl)-piperidine-2,6-dione] | 270 to 272 °C | – |
| Cc1nc2ccc(F)cc2c(=O)n1C1CCC(=O)NC1=O (stereo not shown) [Example 5.3, 3-(6-fluoro-2-methyl-4-oxo-4H-quinazolin-3-yl)-piperidine-2,6-dione] | 273 to 275 °C | – |
| Cc1nc2ccc(Cl)cc2c(=O)n1C1CCC(=O)NC1=O (stereo not shown) [Example 5.4, 3-(6-chloro-2-methyl-4-oxo-4H-quinazolin-3-yl)-piperidine-2,6-dione] | 276 to 278 °C | – |

| SMILES | melting point | IC50 (Namalwa AG4 cells) |
| --- | --- | --- |
| O=C1CCC(n2cnc3ccc(Cl)cc3c2=O)C(=O)N1 (stereo not shown) [Example 5.7, 3-(6-chloro-4-oxo-4H-quinazolin-3-yl)-piperidine-2,6-dione] | 302 to 305 °C | – |
| Cc1ccc2ncn(C3CCC(=O)NC3=O)c(=O)c2c1 (stereo not shown) [Example 5.9, 3-(6-methyl-4-oxo-4H-quinazolin-3-yl)-piperidine-2,6-dione] | 285 to 287 °C | – |
| Cc1nc2ccc(CNC(=O)OC(C)(C)C)cc2c(=O)n1C1CCC(=O)NC1=O (stereo not shown) [Example 5.11, [3-(2,6-dioxo-piperidin-3-yl)-2-methyl-4-oxo-3,4-dihydro-quinazolin-6-ylmethyl]-carbamic acid tert-butyl ester] | 212.5 to 214.5 °C | – |
| Cc1nc2ccc(CNC(=O)N(C)C)cc2c(=O)n1C1CCC(=O)NC1=O (stereo not shown) [Example 5.15, 3-[3-(2,6-dioxo-piperidin-3-yl)-2-methyl-4-oxo-3,4-dihydro-quinazolin-6-ylmethyl]-1,1-dimethyl-urea] | 264 to 268 °C | – |
| Cc1nc2cc(C(F)(F)F)ccc2c(=O)n1C1CCC(=O)NC1=O (stereo not shown) [Example 5.32, 3-(2-methyl-4-oxo-7-trifluoromethyl-4H-quinazolin-3-yl)-piperidine-2,6-dione] | 277 to 279 °C | – |
| O=C1CCC(n2cnc3cc(F)ccc3c2=O)C(=O)N1 (stereo not shown) [Example 5.33, 3-(7-fluoro-4-oxo-4H-quinazolin-3-yl)-piperidine-2,6-dione] | 296 to 298 °C | – |
| Cc1ccc2c(=O)n(C3CCC(=O)NC3=O)cnc2c1 (stereo not shown) [Example 5.34, 3-(7-methyl-4-oxo-4H-quinazolin-3-yl)-piperidine-2,6-dione] | 313 to 315 °C | – |
| Cc1nc2cc(CNC(=O)OC(C)(C)C)ccc2c(=O)n1C1CCC(=O)NC1=O (stereo not shown) [Example 5.36, [3-(2,6-dioxo-piperidin-3-yl)-2-methyl-4-oxo-3,4-dihydro-quinazolin-7-ylmethyl]-carbamic acid tert-butyl ester] | 240 to 242 °C | – |
| Cc1nc2c(Cl)cccc2c(=O)n1C1CCC(=O)NC1=O (stereo not shown) [Example 5.40, 3-(8-chloro-2-methyl-4-oxo-4H-quinazolin-3-yl)-piperidine-2,6-dione] | 290 to 292 °C | – |
| Cc1cccc2c(=O)n(C3CCC(=O)NC3=O)cnc12 (stereo not shown) [Example 5.44, 3-(8-methyl-4-oxo-4H-quinazolin-3-yl)-piperidine-2,6-dione] | 290 to 292 °C | – |
| Cc1nc2c(Cl)cc(Cl)cc2c(=O)n1C1CCC(=O)NC1=O (stereo not shown) [Example 5.46, 3-(6,8-dichloro-2-methyl-4-oxo-4H-quinazolin-3-yl)-piperidine-2,6-dione] | 238 to 240 °C | – |
| Cc1nc2ccc(CNC(=O)c3cccc(C(F)(F)F)c3)cc2c(=O)n1C1CCC(=O)NC1=O (stereo not shown) [N-[3-(2,6-dioxo-piperidin-3-yl)-2-methyl-4-oxo-3,4-dihydro-quinazolin-6-ylmethyl]-3-trifluoromethyl-benzamide] | 220 to 222 °C | 0.01 to 5.5 µM |
| Cc1nc2ccc(CNC(=O)c3ccc(OC(F)(F)F)cc3)cc2c(=O)n1C1CCC(=O)NC1=O (stereo not shown) [N-[3-(2,6-dioxo-piperidin-3-yl)-2-methyl-4-oxo-3,4-dihydro-quinazolin-6-ylmethyl]-4-trifluoromethoxy-benzamide] | 165 to 167 °C | 0.01 to 5.5 µM |
| Cc1nc2ccc(CNC(=O)c3ccc(C(F)(F)F)cc3)cc2c(=O)n1C1CCC(=O)NC1=O (stereo not shown) [N-[3-(2,6-dioxo-piperidin-3-yl)-2-methyl-4-oxo-3,4-dihydro-quinazolin-6-ylmethyl]-4-trifluoromethyl-benzamide] | 221 to 223 °C | 0.01 to 5.5 µM |
| Cc1nc2ccc(CNC(=O)c3ccc(SC(F)(F)F)cc3)cc2c(=O)n1C1CCC(=O)NC1=O (stereo not shown) [N-[3-(2,6-dioxo-piperidin-3-yl)-2-methyl-4-oxo-3,4-dihydro-quinazolin-6-ylmethyl]-4-trifluoromethyl-sulfanyl-benzamide] | 169 to 171 °C | 0.01 to 5.5 µM |
| Cc1nc2ccc(CNC(=O)C3CC3)cc2c(=O)n1C1CCC(=O)NC1=O (stereo not shown) [cyclopropanecarboxylic acid [3-(2,6-dioxo-piperidin-3-yl)-2-methyl-4-oxo-3,4-dihydro-quinazolin-6-ylmethyl]-amide] | 281 to 283 °C | – |
| CCCCCCC(=O)NCc1ccc2nc(C)n(C3CCC(=O)NC3=O)c(=O)c2c1 (stereo not shown) [heptanoic acid [3-(2,6-dioxo-piperidin-3-yl)-2-methyl-4-oxo-3,4-dihydro-quinazolin-6-ylmethyl]-amide] | 223 to 225 °C | 0.01 to 5.5 µM |
